# In patent US9453008B2, “Antithrombotic and antiatherosclerotic agent and method for producing same (variants)” (PROTON OOO, priority 2011, dated 2016):
# What was measured:
# [1] = tested on: human neutrophils; experiment: FMLP-induced generation of superoxide anion radical by human neutrophils; type: cell-based; settings: neutrophils weakened by pathological processes
# Text: We have also studied the effect of the compound on formylmethionyl-leucyl-phenylalanine (FMLP)—induced generation of superoxide anion radical (O2^−.) by human neutrophils, weakened by pathological processes (histiocytosis, stage 2 hypertension). Such experimentation was chosen due to the fact, that, in order to perform a complete phagocytosis with complete destruction of pathogenic microorganisms, phagocytes, including neutrophils, generate the so-called reactive oxygen species (ROS), including oxygen radicals and compounds easily converting into such radicals. Superoxide anion radical (O2^−.) hydroxyl radical (OH.) and lipid hydroxyperoxides (ROO*) also belong to AOF. All these compounds have one unpaired electron on outer molecular orbital, giving them high reactivity, which causes their interaction with cell molecules: proteins, RNA, DNA, etc, accompanied by the loss of their biological activity.
# [2] = tested on: pressor effect of noradrenaline; experiment: Pressor effect of noradrenaline after intravenous administration in normotensive narcotized rats; type: in vivo, rat
# Method: The experiments were performed on spontaneously hypertensive (SHT) and normotensive (NT) narcotized male rats using intravenous administration of the tested compounds. The ability of the compound to reduce arterial blood pressure (BP) in SHT rats and prevent spasmogenic reactions to noradrenalin (NA) and angiotensin I (AI).
# The effects of the compound of formula I on the pressor effects of noradrenaline (NA, 10-15 μg/kg), mesatonum (M, 5 μg/kg) and angiotensin (AI, 5 μg/kg) were studied on normotensive narcotized […]. Antihypertensive action of the compound of formula I was assessed relative to the pressor effects of the control administration of the aforementioned compounds.
structure (smiles),measurement,setting,value
"CN1CC(CO)O/C1=C(C#N)/C=C1/Nc2ccccc2C1=O (stereo not drawn) [Compound I, 2-[2-Cyano-2-[5-(hydroxymethyl)-3-methyl-1,3-oxazolidin-2-ylidene]ethylidene]indolin-3-one]",Effect on reduced ability of human neutrophils to generate reactive oxygen species,[1],briefly enhances
same,Inhibition of pressor reaction (%) induced by Noradrenaline,[2]; 0.01 mg/kg intravenous,25%
same,Inhibition of pressor reaction (%) induced by Noradrenaline,[2]; 0.05 mg/kg intravenous,35%
same,Inhibition of pressor reaction (%) induced by Noradrenaline,[2]; 0.1 mg/kg intravenous,50%
same,Inhibition of pressor reaction (%) induced by Noradrenaline,[2]; 0.5 mg/kg intravenous,60%
same,Inhibition of pressor reaction (%) induced by Noradrenaline,[2]; 1.0 mg/kg intravenous,55-60%
